“And” between values parts separate entries of the source, which are not always exact repeats. Equal values may be shown once.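 Briefly, cells in 96-well plates were exposed to five compound concentrations for 48 h, and endpoints were estimated by linear interpolation. At the GI50, growth is halved. TGI is the concentration that stops growth completely.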
Assays:
Assay in all cases: DTP human tumour cell line panel, 48 h
MOLT-4 leukemia = tested on: MOLT-4 leukemia
SN12C renal = tested on: SN12C renal
SK-OV-3 ovarian = tested on: SK-OV-3 ovarian
HCC-2998 colon = tested on: HCC-2998 colon
UO-31 renal = tested on: UO-31 renal
MALME-3M melanoma = tested on: MALME-3M melanoma
COLO 205 colon = tested on: COLO 205 colon
RPMI-8226 leukemia = tested on: RPMI-8226 leukemia
SF-295 CNS = tested on: SF-295 CNS
ACHN renal = tested on: ACHN renal

CNCC/C=C1\c2cc3c(cc2-c2c1c1cc(OC)c(OC)cc1c(=O)n2C)OCO3
GI50 (MOLT-4 leukemia): < 10 nM
GI50 (SN12C renal): 207 nM
TGI (SN12C renal): 6.06 µM
GI50 (SK-OV-3 ovarian): 3.28 µM
TGI (SK-OV-3 ovarian): 23.6 µM
GI50 (HCC-2998 colon): 3.41 µM
TGI (HCC-2998 colon): 33.6 µM
GI50 (UO-31 renal): 548 nM
TGI (UO-31 renal): > 100 µM
GI50 (MALME-3M melanoma): 419 nM
TGI (MALME-3M melanoma): 4.59 µM
GI50 (COLO 205 colon): 1730 nM
TGI (COLO 205 colon): 41.2 µM
GI50 (RPMI-8226 leukemia): 149 nM
GI50 (SF-295 CNS): 81.1 nM
TGI (SF-295 CNS): 15.6 µM
GI50 (ACHN renal): 167 nM
TGI (ACHN renal): 2.21 µM

Cc1ccc(S(=O)(=O)OCC#CCOS(=O)(=O)c2ccc(C)cc2)cc1
GI50 (MOLT-4 leukemia): 2390 nM
TGI (MOLT-4 leukemia): 7.81 µM
GI50 (SN12C renal): 3890 nM
TGI (SN12C renal): 17.3 µM
GI50 (SK-OV-3 ovarian): 6.51 µM
TGI (SK-OV-3 ovarian): 14.9 µM
GI50 (HCC-2998 colon): 2.85 µM
TGI (HCC-2998 colon): 8.73 µM
GI50 (UO-31 renal): 228 nM
TGI (UO-31 renal): 0.538 µM
GI50 (MALME-3M melanoma): 1970 nM
TGI (MALME-3M melanoma): 4.1 µM
GI50 (COLO 205 colon): 2420 nM
TGI (COLO 205 colon): 5.72 µM
GI50 (RPMI-8226 leukemia): 1850 nM
TGI (RPMI-8226 leukemia): 4.42 µM
GI50 (SF-295 CNS): 1740 nM
TGI (SF-295 CNS): 3.62 µM
GI50 (ACHN renal): 2270 nM
TGI (ACHN renal): 5.94 µM

Cc1ccc(S(=O)(=O)NC(=O)NCCc2ccccc2)cc1
TGI (MOLT-4 leukemia): > 100 µM
TGI (SN12C renal): > 100 µM
TGI (SK-OV-3 ovarian): > 100 µM
TGI (HCC-2998 colon): > 100 µM
TGI (UO-31 renal): > 100 µM
TGI (MALME-3M melanoma): > 100 µM
TGI (COLO 205 colon): > 100 µM
TGI (RPMI-8226 leukemia): > 100 µM
TGI (SF-295 CNS): > 100 µM
TGI (ACHN renal): > 100 µM

CCCCCCCCOCC(O)CO (stereo not drawn)
TGI (MOLT-4 leukemia): > 100 µM
TGI (SN12C renal): > 100 µM
TGI (SK-OV-3 ovarian): > 100 µM
TGI (HCC-2998 colon): > 100 µM
TGI (UO-31 renal): > 100 µM
TGI (MALME-3M melanoma): > 100 µM
TGI (COLO 205 colon): > 100 µM
TGI (RPMI-8226 leukemia): > 100 µM
TGI (SF-295 CNS): > 100 µM
TGI (ACHN renal): > 100 µM

CC[C@@]1(OC(=O)C(N)CCCCN)C(=O)OCc2c1cc1n(c2=O)Cc2cc3ccccc3nc2-1 (stereo partly drawn)
TGI (MOLT-4 leukemia): 0.13 µM
TGI (SN12C renal): 1.63 µM
TGI (SK-OV-3 ovarian): 12 µM
TGI (HCC-2998 colon): 2.11 µM
TGI (UO-31 renal): 0.148 µM
TGI (MALME-3M melanoma): 1.79 µM
TGI (COLO 205 colon): 3.39 µM
TGI (RPMI-8226 leukemia): 0.883 µM
TGI (SF-295 CNS): 0.813 µM
TGI (ACHN renal): 0.129 µM

O=C(O)C1CC=CCC1C(=O)Nc1cccc(O)c1 (stereo not drawn)
TGI (MOLT-4 leukemia): > 100 µM
TGI (SN12C renal): > 100 µM
TGI (SK-OV-3 ovarian): > 100 µM
TGI (HCC-2998 colon): > 100 µM
TGI (UO-31 renal): > 100 µM
TGI (MALME-3M melanoma): > 100 µM
TGI (COLO 205 colon): > 100 µM
TGI (RPMI-8226 leukemia): > 100 µM
TGI (SF-295 CNS): > 100 µM
TGI (ACHN renal): > 100 µM

COc1cc(Cl)cc(-c2nn(-c3cccc(NC(=O)Nc4cccc(C(F)(F)F)c4)c3)cc2-c2ccncc2)c1
GI50 (MOLT-4 leukemia): 1140 nM
TGI (MOLT-4 leukemia): 4.35 µM
GI50 (SN12C renal): 2060 nM
TGI (SN12C renal): 18.5 µM
GI50 (SK-OV-3 ovarian): 3.61 µM
TGI (SK-OV-3 ovarian): 58.4 µM
GI50 (HCC-2998 colon): 3.47 µM
TGI (HCC-2998 colon): 14 µM
GI50 (UO-31 renal): 1030 nM
TGI (UO-31 renal): 7.75 µM
GI50 (MALME-3M melanoma): 1790 nM
TGI (MALME-3M melanoma): 5.91 µM
GI50 (COLO 205 colon): 1530 nM
TGI (COLO 205 colon): 3.17 µM
GI50 (RPMI-8226 leukemia): 430 nM
TGI (RPMI-8226 leukemia): 2.3 µM
GI50 (SF-295 CNS): 783 nM
TGI (SF-295 CNS): 4.62 µM
GI50 (ACHN renal): 1720 nM
TGI (ACHN renal): 16.2 µM

CCOC(=O)C(=O)Nc1cc(Cl)c(Cl)cc1Cl
TGI (MOLT-4 leukemia): > 100 µM
TGI (SN12C renal): > 100 µM
TGI (SK-OV-3 ovarian): > 100 µM
TGI (HCC-2998 colon): > 100 µM
TGI (UO-31 renal): > 100 µM
TGI (MALME-3M melanoma): > 100 µM
TGI (COLO 205 colon): > 100 µM
TGI (RPMI-8226 leukemia): > 100 µM
TGI (SF-295 CNS): > 100 µM
TGI (ACHN renal): > 100 µM

Cc1c(Cl)c(=O)oc2cc(OC/C=C3\CCC(=O)O3)ccc12
GI50 (MOLT-4 leukemia): 16500 nM
TGI (MOLT-4 leukemia): > 100 µM
GI50 (SN12C renal): 16800 nM
TGI (SN12C renal): 41.4 µM
GI50 (SK-OV-3 ovarian): 58 µM
TGI (SK-OV-3 ovarian): > 100 µM
GI50 (HCC-2998 colon): 18 µM
TGI (HCC-2998 colon): 41.2 µM
GI50 (UO-31 renal): 12100 nM
TGI (UO-31 renal): 25 µM
GI50 (MALME-3M melanoma): 12900 nM
TGI (MALME-3M melanoma): 32.2 µM
GI50 (COLO 205 colon): 12900 nM
TGI (COLO 205 colon): 30.1 µM
GI50 (RPMI-8226 leukemia): 7630 nM
TGI (RPMI-8226 leukemia): 42.6 µM
GI50 (SF-295 CNS): 62900 nM
TGI (SF-295 CNS): > 100 µM
GI50 (ACHN renal): 4220 nM
TGI (ACHN renal): 17.9 µM

O=C(O)[C@@H]1OCCOCCO[C@@H](C(=O)O)[C@H](C(=O)O)OCCOCCO[C@H]1C(=O)O
TGI (MOLT-4 leukemia): > 100 µM
TGI (SN12C renal): > 100 µM
TGI (SK-OV-3 ovarian): > 100 µM
TGI (HCC-2998 colon): > 100 µM
TGI (UO-31 renal): > 100 µM
TGI (MALME-3M melanoma): > 100 µM
TGI (COLO 205 colon): > 100 µM
TGI (RPMI-8226 leukemia): > 60.9 µM
TGI (SF-295 CNS): > 100 µM
TGI (ACHN renal): > 100 µM

O=C1Nc2cc(-c3cccc(O)c3)ccc2/C1=C/c1ccc[nH]1
GI50 (MOLT-4 leukemia): 1070 nM
TGI (MOLT-4 leukemia): 33.6 µM
GI50 (SN12C renal): 1600 nM
TGI (SN12C renal): 7.11 µM
GI50 (SK-OV-3 ovarian): 0.655 µM
TGI (SK-OV-3 ovarian): 5.22 µM
GI50 (HCC-2998 colon): 2.03 µM
TGI (HCC-2998 colon): 11.8 µM
GI50 (UO-31 renal): 359 nM
TGI (UO-31 renal): 3.78 µM
GI50 (MALME-3M melanoma): 1340 nM
TGI (MALME-3M melanoma): 3.71 µM
GI50 (COLO 205 colon): 4370 nM
TGI (COLO 205 colon): 28.6 µM
GI50 (RPMI-8226 leukemia): 588 nM
TGI (RPMI-8226 leukemia): 5.83 µM
GI50 (SF-295 CNS): 2340 nM
TGI (SF-295 CNS): 5.23 µM
GI50 (ACHN renal): 515 nM
TGI (ACHN renal): 5.5 µM

CS(=O)(=O)Nc1cc(-c2ccc3ncnc(Nc4ccc(F)c(Cl)c4)c3c2)cnc1Cl
GI50 (MOLT-4 leukemia): 311 nM and 284 nM
TGI (MOLT-4 leukemia): 1.81 µM and 2.02 µM
GI50 (SN12C renal): 389 nM
TGI (SN12C renal): 12.7 µM
GI50 (SK-OV-3 ovarian): 0.255 µM and 0.317 µM
TGI (SK-OV-3 ovarian): 1.34 µM and 2.71 µM
GI50 (HCC-2998 colon): 1.21 µM
TGI (HCC-2998 colon): 4.05 µM
GI50 (UO-31 renal): 204 nM
TGI (UO-31 renal): 1.69 µM
GI50 (MALME-3M melanoma): 191 nM and 179 nM
TGI (MALME-3M melanoma): 1.13 µM and 1.56 µM
GI50 (COLO 205 colon): 562 nM and 1060 nM
TGI (COLO 205 colon): 2.19 µM and 4.53 µM
GI50 (RPMI-8226 leukemia): 444 nM and 598 nM
TGI (RPMI-8226 leukemia): 2.67 µM and 3.4 µM
GI50 (SF-295 CNS): 612 nM and 606 nM
TGI (SF-295 CNS): 4.11 µM and 3.85 µM
GI50 (ACHN renal): 404 nM and 575 nM
TGI (ACHN renal): 13.8 µM and > 42.5 µM

C1OC1CN1CCN(CC2CO2)CC1 (stereo not drawn)
TGI (MOLT-4 leukemia): > 62.4 µM
TGI (SN12C renal): > 100 µM
TGI (SK-OV-3 ovarian): > 100 µM
TGI (HCC-2998 colon): > 100 µM
TGI (UO-31 renal): > 100 µM
TGI (MALME-3M melanoma): > 100 µM
TGI (COLO 205 colon): > 100 µM
TGI (RPMI-8226 leukemia): > 100 µM
TGI (SF-295 CNS): > 100 µM
TGI (ACHN renal): > 100 µM
